The record followed here is patent publication US20150087722A1, “TREATMENT FOR BREAST TUMOR CELL METASTASIS” (China Medical University, priority 2012, published 2015).

Holding throughout (experiment): western blotting of EMT-related proteins
Holding throughout (format): cell-based, human
On the technique in general: A western blot detects proteins with antibodies after separation by electrophoresis.

Test [1] concerns EMT-related proteins in breast tumor cells MCF-7. Conditions: MCF-7, 10, 15 and 20 μM, 24 h, with dose increasing. The method, then:
(§1) FIG. 2A illustrates the expression results of EMT-related proteins in breast tumor cells MDA-MB-231 after the breast tumor cells MDA-MB-231 have been respectively cultured under compound II having concentrations of 0, 0.5, 1 and 2 μM for 24 h; and FIG. 2B illustrates the expression results of EMT-related proteins in breast tumor cells MCF-7 after the breast tumor cells MCF-7 have been respectively cultured under the compound II having concentrations of 0, 10, 15 and 20 μM for 24 h. FIG. 3A illustrates the western blotting results of EMT-related proteins in the breast tumor cells MDA-MB-468, where the breast tumor cells MDA-MB-468 are treated with the compound I having concentrations of 0, 0.5, 1 and 2 μM for 24 h, and FIG. 3B illustrates the western blotting results of EMT-related proteins in the breast tumor cells MDA-MB-435, where the breast tumor cells MDA-MB-435 are treated with the compound I having concentrations of 0, 2.5, 5 and 7.5 μM for 24 h. FIG. 4 illustrates the western blotting results of EMT-related proteins in the human normal breast cells MCF-10A stimulated by TNF-α/TGF-β, where the human normal breast cells MCF-10A are treated with the compound I having concentrations of 2 μM for 24 h. The human normal breast cells stimulated by TNF-α/TGF-β can cause TNF-α/TGF-β-induced EMT in the human normal breast cells MCF-10A. The steps of western blotting include: washing cells with PBS twice at 4° C.; adding a lysis buffer and rubbing the cells by a rubbr policeman so as to lyse cells; putting the lysed cell solution into a 1.5 ml microcentrifuge tube and shaking for 1 min; centrifuging at 12000 rpm for 10 min and taking the supernatant; measuring concentration of the protein through a Bio-Rad protein assay kit; and storing the remained extracted protein solution at −70° C.; taking 100 μg protein solution and adding a SDS/protein loading buffer having the same volume, where the SDS/protein loading buffer has a concentration two times larger than the protein solution; boiling the mixture of the protein solution and the SDS/protein loading buffer at 100° C. for 10 min; cooling and loading the protein samples in each hole of gel; adjusting the voltage to 100 V and running the protein samples on the gel until the tracking dye in the sample buffer reaches the bottom of the gel; and subsequently transferring the protein from the gel using electrophoresis. A PVDF membrane was soaked in methanol until the paper was totally wet. The paper was arranged in a transfer tank placed in a 4° C. ice box, and the protein transfer was performed at a current of […] for 4 h. The PVDF membrane was then taken out, placed in a PBS blocking solution including 1% BSA and shaken for 2 h. Then the PVDF membrane was placed in a blocking solution including a primary antibody and slowly shaken at 100 rpm for 1 h at the room temperature. Subsequently the PVDF membrane was washed with PBST for third times, each time for 3-5 min. According to different […] and different dilution ratios, the PVDF membrane was shaken for 2 h on a horizontal rotator and then washed with PBST for three times. Then luminescence image equipment was used, where the PVDF was placed onto a black metal plate by a plastic pincer and the face including protein was upwards, a 1:1 mixed Chemiluminesent Substrate was added into the membrane and the exposure time depends on the fluorescence intensity of antibodies.

The test system of test [2] is EMT-related proteins in breast tumor cells MDA-MB-231. The settings on record: MDA-MB-231, 0.5, 1 and 2 μM, 24 h, with dose increasing. On the procedure: FIG. 2A illustrates the expression results of EMT-related proteins in breast tumor cells MDA-MB-231 after the breast tumor cells MDA-MB-231 have been respectively cultured under compound II having concentrations of 0, 0.5, 1 and 2 μM for 24 h; and FIG. 2B illustrates the expression results of EMT-related proteins in breast tumor cells MCF-7 after the breast tumor cells MCF-7 have been respectively cultured under the compound II having concentrations of 0, 10, 15 and 20 μM for 24 h. FIG. 3A illustrates the western blotting results of EMT-related proteins in the breast tumor cells MDA-MB-468, where the breast tumor cells MDA-MB-468 are treated with the compound I having concentrations of 0, 0.5, 1 and 2 μM for 24 h, and FIG. 3B illustrates the western blotting results of EMT-related proteins in the breast tumor cells MDA-MB-435, where the breast tumor cells MDA-MB-435 are treated with the compound I having concentrations of 0, 2.5, 5 and 7.5 μM for 24 h. […] Then luminescence image equipment was used, where the PVDF was placed onto a black metal plate by a plastic pincer and the face including protein was upwards, a 1:1 mixed Chemiluminesent Substrate was added into the membrane and the exposure time depends on the fluorescence intensity of antibodies. […]

The test system of test [3] is EMT-related proteins in breast tumor cells MDA-MB-468. The settings on record: MDA-MB-468, 0.5, 1 and 2 μM, 24 h, with dose increasing. The method, then:
as §1

For `COC1=C(OC)C(=O)C(C)=C(C)C1=O` [compound II], in test [1], the “expression amount of E-cadherin, p-β-catenin and occludin” value is “increased”; the “expression amount of proteins facilitating tumor cell proliferation (Twist, Snail, vimentin, β-catenin)” value was “decreased”. In test [2], the “expression amount of E-cadherin, occludin and ICAM” value is reported as “increased”; the “expression amount of proteins facilitating tumor cell proliferation (Twist, Snail, vimentin, β-catenin, VEGF)” value is reported as “decreased”.

Turning to `COC1=C(OC)C(=O)C(C)=CC1=O` [compound I], in test [3], the “expression amount of E-cadherin and occludin” value is listed as “increased”; the “expression amount of proteins facilitating tumor cell proliferation (Snail, vimentin, β-catenin)” value is given as “decreased”.
